Results from patent publication US10669283B2, “Compound and pharmacologically acceptable salt thereof” (MEIJI SEIKA PHARMA CO., LTD., priority 2016, dated 2020).

Key:
[1] = Hepatic metabolic stability (rat liver microsome method); format: in vitro ADME; conditions: rat liver microsomes 0.5 mg/mL, test substance 1 μM, NADPH 1 mM, 37° C., 30 minutes
Procedure: Metabolic stability in rat liver microsomes was evaluated by the following method. In 100 mM of potassium phosphate buffer solution (pH 7.4), liver microsomes (concentration at reaction: 0.5 mg/mL) and the test substance (concentration at reaction: 1 μM) were preincubated at 37° C. Five minutes later, 100 mM of potassium phosphate buffer (pH 7.4) solution of NADPH (concentration at reaction: 1 mM) was mixed thereto to start the reaction. After a predetermined time passed, acetonitrile was mixed to the reaction mixture to stop the reaction. Here, the reaction time was 0 and 30 minutes, and drug concentration measurement was performed for each time period using LC-MS. The % remaining value of the test compound was calculated from the value for 0 minutes and the value for 30 minutes, using the calculation formula below: % Remaining=(Value for 30 Minutes/Value for 0 Minutes)×100
The results of measuring the rat liver microsome metabolic Stability (% remaining for 30-minute reaction) for the test compound by the above method were evaluated in accordance with the following evaluated basis; A: a % remaining rate of 75% or more, B: 60% or more and less than 75%, C: 45% or more and less than 60%, and D: less than 45%.

PDE4 = PDE4 inhibition, scintillation proximity assay (SPA); format: biochemical; conditions: scintillation proximity assay (SPA); evaluated as classes A, B, C; read-out: PDE4 Inhibitory Activity (concentration for the inhibition rate of 50%)
Method in brief: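 Compound pre-diluted 1:10 in 50 mM Tris-HCl pH 7.4, 8.3 mM MgCl2, 1.7 mM EGTA, 3 mg/mL BSA, then incubated with PDE4 and [2,8-3H]-cAMP for 120 min at room temperature. Product captured on ZnSO4-containing YSi-SPA beads for 15 min; radioactivity counted against no-enzyme blank and DMSO control.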

Row | SMILES | Residual ratio (% remaining for 30-minute reaction) [1] | IC50 (PDE4)
1 | FC(F)(F)Oc1c(Cl)cc(-c2cscn2)c2oc(N3CC4CCC(C3)N4)nc12 [Example 8, 2-(3,8-Diazabicyclo[3.2.1]octan-3-yl)-5-chloro-7-(thiazol-4-yl)-4-(trifluoromethoxy)benzo[d]oxazole] | A (a % remaining rate of 75% or more) | < 100 nM
2 | Fc1ccc(-c2cc(Cl)c(OC(F)(F)F)c3nc(N4CC5CCC(C4)N5)oc23)nc1 [Example 10, 2-(3,8-Diazabicyclo[3.2.1]octan-3-yl)-5-chloro-7-(5-fluoropyridin-2-yl)-4-(trifluoromethoxy)benzo[d]oxazole] | A (a % remaining rate of 75% or more) | < 100 nM
3 | FC(F)(F)c1c(Cl)cc(-c2ccccn2)c2oc(N3CC4CCCC(C3)N4)nc12 [Example 12, 2-(3,9-Diazabicyclo[3.3.1]nonan-3-yl)-5-chloro-7-(pyridin-2-yl)-4-(trifluoromethyl)benzo[d]oxazole] | B (60% or more and less than 75%) | < 100 nM
4 | FC(F)(F)c1c(Cl)cc(-n2cccn2)c2oc(N3CC4CC(C3)N4)nc12 [Example 17, 2-(3,6-Diazabicyclo[3.1.1]heptan-3-yl)-5-chloro-7-(1H-pyrazol-1-yl)-4-(trifluoromethyl)benzo[d]oxazole] | B (60% or more and less than 75%) | < 100 nM
5 | FC(F)(F)Oc1ccc(-c2nccs2)c2oc(N3CC4CC(C3)N4)nc12 [Example 29, 2-(3,6-Diazabicyclo[3.1.1]heptan-3-yl)-7-(thiazol-2-yl)-4-(trifluoromethoxy)benzo[d]oxazole] | B (60% or more and less than 75%) | < 100 nM
6 | OC(c1cc(-c2nccs2)c2oc(N3CC4CCC(C3)N4)nc2c1)C(F)F (stereo not drawn) [Example 104, 1-(2-(3,8-Diazabicyclo[3.2.1]octan-3-yl)-7-(thiazol-2-yl)benzo[d]oxazol-5-yl)-2,2-difluoroethan-1-ol] | B (60% or more and less than 75%) | < 100 nM
7 | FC(F)(F)C(OCc1nnn[nH]1)c1ccc(-c2nccs2)c2oc(N3CC4CCC(C3)N4)nc12 (stereo not drawn) [Example 230, 4-(1-((1H-tetrazol-5-yl)methoxy)-2,2,2-trifluoroethyl)-2-(3,8-diazabicyclo[3.2.1]octan-3-yl)-7-(thiazol-2-yl)benzo[d]oxazole] | A (a % remaining rate of 75% or more) | < 100 nM
8 | FC(F)(F)C(OCc1nnn[nH]1)c1ccc(-c2nccs2)c2oc(N3CC4CC(C3)N4)nc12 (stereo not drawn) [Example 231, 4-(1-((1H-tetrazol-5-yl)methoxy)-2,2,2-trifluoroethyl)-2-(3,6-diazabicyclo[3.1.1]heptan-3-yl)-7-(thiazol-2-yl)benzo[d]oxazole] | A (a % remaining rate of 75% or more) | < 100 nM
9 | CC(C)(O)C(F)(F)Oc1ccc(-c2nccs2)c2oc(N3CC4CC(C3)N4)nc12 [Example 248, 1-((2-(3,6-Diazabicyclo[3.1.1]heptan-3-yl)-7-(thiazol-2-yl)benzo[d]oxazol-4-yl)oxy)-1,1-difluoro-2-methylpropan-2-ol] | A (a % remaining rate of 75% or more) | < 100 nM
10 | OCC(F)(F)Oc1ccc(-c2nccs2)c2oc(N3CC4CC(C3)N4)nc12 [Example 249, 2-((2-(3,6-Diazabicyclo[3.1.1]heptan-3-yl)-7-(thiazol-2-yl)benzo[d]oxazol-4-yl)oxy)-2,2-difluoroethan-1-ol] | B (60% or more and less than 75%) | < 100 nM
11 | c1csc(-c2ccc(OC3CCOCC3)c3nc(N4CC5CCC(C4)N5)oc23)n1 [Example 254, 2-(3,8-Diazabicyclo[3.2.1]octan-3-yl)-4-((tetrahydro-2H-pyran-4-yl)oxy)-7-(thiazol-2-yl)benzo[d]oxazole] | A (a % remaining rate of 75% or more) | < 100 nM
12 | C[C@@H](O)COc1ccc(-c2nccs2)c2oc(N3CC4CC(C3)N4)nc12 [Example 259, (2R)-1-((2-(3,6-diazabicyclo[3.1.1]heptan-3-yl)-7-(thiazol-2-yl)benzo[d]oxazol-4-yl)oxy)propan-2-ol] | A (a % remaining rate of 75% or more) | < 100 nM
13 | OC1CC(Oc2ccc(-c3nccs3)c3oc(N4CC5CC(C4)N5)nc23)C1 (stereo not drawn) [Example 285, 3-((2-(3,6-Diazabicyclo[3.1.1]heptan-3-yl)-7-(thiazol-2-yl)benzo[d]oxazol-4-yl)oxy)cyclobutan-1-ol] | A (a % remaining rate of 75% or more) | < 100 nM
14 | c1csc(-c2ccc(OC3CCOCC3)c3nc(N4CC5CC(C4)N5)oc23)n1 [Example 294, 2-(3,6-Diazabicyclo[3.1.1]heptan-3-yl)-4-((tetrahydro-2H-pyran-4-yl)oxy)-7-(thiazol-2-yl)benzo[d]oxazole] | A (a % remaining rate of 75% or more) | < 100 nM
15 | CC(C)(O)C(F)(F)Oc1ccc(-n2cccn2)c2oc(N3CC4CC(C3)N4)nc12 [Example 304, 1-((2-(3,6-Diazabicyclo[3.1.1]heptan-3-yl)-7-(1H-pyrazol-1-yl)benzo[d]oxazol-4-yl)oxy)-1,1-difluoro-2-methylpropan-2-ol] | A (a % remaining rate of 75% or more) | < 100 nM
16 | Cc1csc(-c2ccc(OC(F)(F)C(C)(C)O)c3nc(N4CC5CC(C4)N5)oc23)n1 [Example 306, 1-((2-(3,6-Diazabicyclo[3.1.1]heptan-3-yl)-7-(4-methylthiazol-2-yl)benzo[d]oxazol-4-yl)oxy)-1,1-difluoro-2-methylpropan-2-ol] | A (a % remaining rate of 75% or more) | 100 to 1000 nM
17 | OCC(F)(F)Oc1ccc(-c2ccccn2)c2oc(N3CC4CC(C3)N4)nc12 [Example 315, 2-((2-(3,6-Diazabicyclo[3.1.1]heptan-3-yl)-7-(pyridin-2-yl)benzo[d]oxazol-4-yl)oxy)-2,2-difluoroethan-1-ol] | A (a % remaining rate of 75% or more) | < 100 nM
18 | CC(C)(O)C(F)(F)Oc1ccc(-n2cccn2)c2oc(N3CC4CCC(C3)N4)nc12 [Example 316, 1-((2-(3,8-Diazabicyclo[3.2.1]octan-3-yl)-7-(1H-pyrazol-1-yl)benzo[d]oxazol-4-yl)oxy)-1,1-difluoro-2-methylpropan-2-ol] | A (a % remaining rate of 75% or more) | < 100 nM
19 | CC(C)(O)C(F)(F)Oc1ccc(-c2ccccn2)c2oc(N3CC4CCC(C3)N4)nc12 [Example 317, 1-((2-(3,8-Diazabicyclo[3.2.1]octan-3-yl)-7-(pyridin-2-yl)benzo[d]oxazol-4-yl)oxy)-1,1-difluoro-2-methylpropan-2-ol] | A (a % remaining rate of 75% or more) | < 100 nM
20 | Cc1csc(-c2ccc(OC(F)(F)C(C)(C)O)c3nc(N4CC5CCC(C4)N5)oc23)n1 [Example 318, 1-((2-(3,8-Diazabicyclo[3.2.1]octan-3-yl)-7-(4-methylthiazol-2-yl)benzo[d]oxazol-4-yl)oxy)-1,1-difluoro-2-methylpropan-2-ol] | B (60% or more and less than 75%) | < 100 nM
21 | OCC(F)(F)Oc1ccc(-c2ccc(F)cn2)c2oc(N3CC4CC(C3)N4)nc12 [Example 319, 2-((2-(3,6-Diazabicyclo[3.1.1]heptan-3-yl)-7-(5-fluoropyridin-2-yl)benzo[d]oxazol-4-yl)oxy)-2,2-difluoroethan-1-ol] | A (a % remaining rate of 75% or more) | < 100 nM
22 | CC(C)(O)C(F)(F)Oc1ccc(-c2ncco2)c2oc(N3CC4CCC(C3)N4)nc12 [Example 321, 1-((2-(3,8-Diazabicyclo[3.2.1]octan-3-yl)-7-(oxazol-2-yl)benzo[d]oxazol-4-yl)oxy)-1,1-difluoro-2-methylpropan-2-ol] | A (a % remaining rate of 75% or more) | < 100 nM
23 | CC(C)(O)C(F)(F)Oc1ccc(-n2nccn2)c2oc(N3CC4CCC(C3)N4)nc12 [Example 322, 1-((2-(3,8-Diazabicyclo[3.2.1]octan-3-yl)-7-(2H-1,2,3-triazol-2-yl)benzo[d]oxazol-4-yl)oxy)-1,1-difluoro-2-methylpropan-2-ol] | A (a % remaining rate of 75% or more) | < 100 nM
24 | c1csc(-c2ccc(O[C@H]3CCOC3)c3nc(N4CC5CC(C4)N5)oc23)n1 [Example 323, 2-(3,6-Diazabicyclo[3.1.1]heptan-3-yl)-4-(((S)-tetrahydrofuran-3-yl)oxy)-7-(thiazol-2-yl)benzo[d]oxazole] | B (60% or more and less than 75%) | < 100 nM
